Data from US6420605B1, “Benzamidoxim derivatives, intermediate products and methods for preparing and using them as fungicides” (BASF Aktiengesellschaft, priority 1997, dated 2002).

System: powdery mildew of wheat (Erysiphe graminis f.sp.tritici)
Experiment: Efficacy against powdery mildew of wheat (protective spray, greenhouse)
Format: in vivo
Settings: wheat seedlings cv. Frühgold sprayed 24 hours before dusting with spores, after 7 days, untreated plants 80%
Experimental: Leaves of wheat seedlings cv. “Frühgold” grown in pots were sprayed to runoff point with aqueous preparation of active ingredient made with a stock solution composed of 10% active ingredient, 63% cyclohexanone and 27% emulsifier and, 24 hours after the spray coating had dried on, dusted with spores of powdery mildew of wheat (Erysiphe graminis f.sp.tritici). The test plants were subsequently placed in the greenhouse at from 20 to 22° C. and a relative atmospheric humidity of 75 to 80%. After 7 days, the extent of the mildew development was determined visually in % of the total leaf area.

[1] = Example 3, aqueous preparation comprising 63 ppm active ingredient

Row | Compound | extent of the mildew development determined visually in % of the total leaf area [1] | extent of the mildew development determined visually in % of the total leaf area (Example 4, concentration not given)
1 | C=CCCON=C(NC(=O)Cc1ccccc1)c1c(F)cccc1OC(F)F [I.3, N-Phenylacetyl-2-difluoromethoxy-6-fluorobenzamide O-allylmethyl oxime] | free from disease | –
2 | O=C(Cc1ccccc1)NC(=NOCC1CC1)c1c(F)cccc1OC(F)F [I.6, N-Phenylacetyl-2-difluoromethoxy-6-fluorobenzamide O-cyclopropylmethyl oxime] | free from disease | –
3 | N#Cc1c(F)cccc1OC(F)F [II.1, 2-Difluoromethoxy-6-fluorobenzonitrile] | – | free from disease
